Results on 13 molecules are retold here after patent publication US5169860A, “Antitumor compositions and methods of treatment” (Eli Lilly and Company, priority 1992, dated 1992).

The test system of this series is 6C3HED lymphosarcoma. Put plainly: animal or person. It is filed as in vivo, C3H mice. The conditions noted are these: for Toxic/Total (mice which died relative to total number of animals in the group): mouse, in vivo. How it is done:
The compounds were tested in C3H mice bearing a 6C3HED lymphosarcoma, also known as the Gardner lymphosarcoma (GLS). The 6C3HED lymphosarcoma was obtained from the Division of Cancer Treatment, National Cancer Institute, Tumor Bank, maintained at E. G. and G. Mason Research (Worcester, Massachusetts).
First passage tumor was stored in liquid nitrogen using standard techniques. The transplanted tumor was reestablished from the Tumor Bank every six months or as needed. The tumor was maintained by serial passage twice weekly in C3H mice.
In the procedures utilized here, the tumor was removed from passage animals and minced into 1- to 3-mm cubic fragments using sterile techniques. Tumor pieces were checked for sterility using both Antibiotic Medium 1 and Brain Heart Infusion (Difco, Detroit, Michigan). The tumor pieces were implanted into the recipient C3H mice subcutaneously in an auxillary site by trochar.
Drug therapy on the appropriate schedule was initiated seven days after tumor implantation. The compound being tested was mixed with 2.5% Emulphor EL620 from GAF Corporation (1:40 dilution in 0.9% saline). The total dosage volume for each administration was 0.5 mL. All animals were weighed at the beginning and end of administration of the subject compounds. Food and water were provided ad libitum
Each control group and each dosage level of the treated groups generally consisted of 10 mice selected at random from the pool of implanted animals. The formulations were administered orally by gavage with the use of an 18-gauge needle. Compounds were dosed daily for 10 days.
The tumor was measured five days after treatment ended with two dimensional measurements (width and length) of the tumor taken using digital electronic calipers interfaced to a microcomputer. J. F. Worzalla, et al.. Investicational New Drugs. 8:241-251 (1990). Tumor weights were calculated from these measurements using the following formula:
Tumor weight (mg)=[tumor length (mm)×[tumor width (mm)]2].div.2
At least one control group of an equal number of mice was treated with the same volume of 2.5% Emulphor only. The percent inhibition was determined by subtracting the ratio of the mean tumor size of the test group relative to the control group from one and multiplying the result by 100.
The results of several experiments in mice bearing the 6C3HED lymphosarcoma when the instant compounds were administered orally are provided in the following table. In this table, column 1 gives the example number of the compound of Formula I administered; column 2 gives the dosage level of the compound in milligrams per kilogram of body weight; column 3 describes the percent inhibition of tumor growth; and column 4 tallies the number of mice which died during the course of the experiment relative to the total number of animals in the group.

Setting [1] is: Mus musculus, 6C3HED, 120 h, oral gavage, daily for 10 days, tumor measured five days after treatment ended, read-out: Percent Inhibition of tumor growth.
The mark [2] stands for this setting: Mus musculus, 6C3HED, 240 h, second listing (groups of 8), oral gavage, daily for 10 days, read-out: Percent Inhibition of tumor growth.

Where two headings read alike, the source gives them in different places.

Take `O=C(Nc1ccc(Cl)cc1)NS(=O)(=O)c1cc2ccccc2o1` [Example 1, N-[[(4-chlorophenyl)amino]carbonyl]-2-benzofuransulfonamide]: the “Toxic/Total (mice which died relative to total number of animals in the group)” value is given as 4/10. Further, the inhibition in vivo at 150 mg/kg under setting [1] was found to be 84%.

On to `Cc1ccc(NC(=O)NS(=O)(=O)c2cc3ccccc3o2)cc1` [Example 2, N-[[(4-methylphenyl)amino]carbonyl]-2-benzofuransulfonamide], for which the “Toxic/Total (mice which died relative to total number of animals in the group)” value was 0/10. In addition, under setting [1], the inhibition in vivo at 150 mg/kg is 11% and the inhibition in vivo at 300 mg/kg came out at 37%.

Consider `O=C(Nc1ccc(Cl)c(Cl)c1)NS(=O)(=O)c1cc2ccccc2o1` [Example 3, N-[[(3,4 dichlorophenyl)amino]carbonyl]-2-benzofuransulfonamide], for which, under setting [1], the inhibition in vivo at 150 mg/kg is 28% and the inhibition in vivo at 300 mg/kg is 28%.

Turning to `O=C(Nc1ccc(Br)cc1)NS(=O)(=O)c1cc2ccccc2o1` [Example 4, N-[[(4-bromophenyl)amino]carbonyl]-2-benzofuransulfonamide], the “Toxic/Total (mice which died relative to total number of animals in the group)” value is reported as 1/10. For the same molecule, the inhibition in vivo at 150 mg/kg under setting [1] worked out at 48%.

Regarding `O=C(Nc1ccc(Cl)cc1)NS(=O)(=O)c1cccc2occc12` [Example 5, N-[[(4-chlorophenyl)amino]carbonyl]-4-benzofuransulfonamide], under setting [1], the inhibition in vivo at 150 mg/kg is 84% and the inhibition in vivo at 300 mg/kg was 100%.

With `O=C(Nc1ccc(Cl)cc1)NS(=O)(=O)c1ccc2occc2c1` [Example 6, N-[[(4-chlorophenyl)amino]carbonyl]-5-benzofuransulfonamide hemihydrate], the inhibition in vivo at 10 mg/kg (Mus musculus, 6C3HED, 120 h, 10 mg/kg, oral gavage, daily for 10 days, tumor measured five days after treatment ended, read-out: Percent Inhibition of tumor growth) worked out at 0%. Under setting [1], the inhibition in vivo at 20 mg/kg is 7%, the inhibition in vivo at 40 mg/kg turned out to be 53%, the inhibition in vivo at 80 mg/kg is 96% and the inhibition in vivo at 150 mg/kg came to 100%.

As to `Cc1ccc(NC(=O)NS(=O)(=O)c2ccc3occc3c2)cc1` [Example 7, N-[[(4-methylphenyl)amino]carbonyl]-5-benzofuransulfonamide], under setting [1], the inhibition in vivo at 150 mg/kg turned out to be 84% and the inhibition in vivo at 300 mg/kg was 100%.

As to `O=C(Nc1ccc(Cl)cc1)NS(=O)(=O)c1ccc2ccoc2c1` [Example 8, N-[[(4-chlorophenyl)amino]carbonyl]-6-benzofuransulfonamide], under setting [1], the inhibition in vivo at 20 mg/kg is 45%, the inhibition in vivo at 40 mg/kg was determined as 45% and the inhibition in vivo at 80 mg/kg was determined as 93%. Besides, the inhibition in vivo at 160 mg/kg (Mus musculus, 6C3HED, 120 h, 160 mg/kg, oral gavage, daily for 10 days, tumor measured five days after treatment ended, read-out: Percent Inhibition of tumor growth) amounted to 100%. Moreover, under setting [2], the inhibition in vivo at 40 mg/kg turned out to be 92% and the inhibition in vivo at 80 mg/kg stood at 98%.

With `O=C(Nc1ccc(Cl)cc1)NS(=O)(=O)c1cc2ccccc2[nH]1` [Example 9, N-[[(4-chlorophenyl)amino]carbonyl]-lH-indole-2-sulfonamide], under setting [1], the inhibition in vivo at 150 mg/kg was determined as 26% and the inhibition in vivo at 300 mg/kg was found to be 57%.

As to `O=C(Nc1ccc(Cl)cc1)NS(=O)(=O)c1ccc2cc[nH]c2c1` [Example 10, N-[[(4-chlorophenyl)amino]carbonyl]-lH-indole-6-sulfonamide], the “Toxic/Total (mice which died relative to total number of animals in the group)” value is given as 0/10. Under setting [1], the inhibition in vivo at 150 mg/kg was determined as 37% and the inhibition in vivo at 300 mg/kg was 80%.

For `O=C(Nc1ccc(Cl)cc1)NS(=O)(=O)c1cc2ccccc2s1` [Example 11, N-[[(4-chlorophenyl)amino]carbonyl]benzo[B]thiophene-2-sulfonamide], under setting [1], the inhibition in vivo at 150 mg/kg is 47% and the inhibition in vivo at 300 mg/kg was found to be 66%.

With `O=C(Nc1ccc(Cl)cc1)NS(=O)(=O)c1csc2ccccc12` [Example 12, N-[[(4-chlorophenyl)amino]carbonyl]benzo[B]thiophene-3-sulfonamide], the “Toxic/Total (mice which died relative to total number of animals in the group)” value is recorded as 0/10. Further, under setting [1], the inhibition in vivo at 150 mg/kg amounted to 43% and the inhibition in vivo at 300 mg/kg is 69%.

For `O=C(Nc1ccc(Cl)cc1)NS(=O)(=O)c1ccc2sccc2c1` [Example 13, N-[[(4-chlorophenyl)amino]carbonyl]benzo[B]thiophene-5-sulfonamide], the “Toxic/Total (mice which died relative to total number of animals in the group)” value is 0/8. Further, under setting [1], the inhibition in vivo at 40 mg/kg was determined as 8% and the inhibition in vivo at 80 mg/kg stood at 44%.
